Tests used:
[1] = biological target: Mer tyrosine kinase (Homo sapiens (Human), UniProt Q12866); test: Evaluation of activity against Mer tyrosine kinase; assay type: biochemical
[2] = biological target: Tyro3 tyrosine kinase (Homo sapiens (Human), UniProt Q06418); test: Evaluation of activity against Tyro3 tyrosine kinase; assay type: biochemical
Chain of Tyro3 tyrosine kinase (Q06418 41-890): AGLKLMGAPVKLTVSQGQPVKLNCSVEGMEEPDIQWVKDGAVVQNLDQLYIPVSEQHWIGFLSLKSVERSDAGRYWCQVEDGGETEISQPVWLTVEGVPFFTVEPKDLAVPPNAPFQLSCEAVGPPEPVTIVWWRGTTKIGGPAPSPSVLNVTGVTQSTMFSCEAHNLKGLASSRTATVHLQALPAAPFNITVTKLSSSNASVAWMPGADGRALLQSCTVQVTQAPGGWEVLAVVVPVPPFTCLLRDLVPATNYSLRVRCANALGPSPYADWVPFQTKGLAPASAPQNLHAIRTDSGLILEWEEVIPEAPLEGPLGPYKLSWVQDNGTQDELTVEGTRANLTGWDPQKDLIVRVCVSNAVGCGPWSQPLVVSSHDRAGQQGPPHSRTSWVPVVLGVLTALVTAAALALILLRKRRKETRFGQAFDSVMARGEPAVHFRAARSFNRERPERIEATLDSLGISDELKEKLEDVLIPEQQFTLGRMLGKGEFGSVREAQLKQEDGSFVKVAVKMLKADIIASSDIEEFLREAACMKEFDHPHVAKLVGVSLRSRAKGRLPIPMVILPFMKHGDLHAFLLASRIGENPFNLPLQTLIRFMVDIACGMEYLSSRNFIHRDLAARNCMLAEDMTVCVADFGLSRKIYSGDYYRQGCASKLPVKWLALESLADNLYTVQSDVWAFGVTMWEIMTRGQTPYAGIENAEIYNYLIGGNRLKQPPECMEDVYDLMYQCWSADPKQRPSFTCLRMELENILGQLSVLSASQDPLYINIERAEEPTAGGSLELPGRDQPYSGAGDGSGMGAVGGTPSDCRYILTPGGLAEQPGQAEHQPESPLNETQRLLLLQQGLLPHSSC

Chain of Mer tyrosine kinase (Q12866 21-999): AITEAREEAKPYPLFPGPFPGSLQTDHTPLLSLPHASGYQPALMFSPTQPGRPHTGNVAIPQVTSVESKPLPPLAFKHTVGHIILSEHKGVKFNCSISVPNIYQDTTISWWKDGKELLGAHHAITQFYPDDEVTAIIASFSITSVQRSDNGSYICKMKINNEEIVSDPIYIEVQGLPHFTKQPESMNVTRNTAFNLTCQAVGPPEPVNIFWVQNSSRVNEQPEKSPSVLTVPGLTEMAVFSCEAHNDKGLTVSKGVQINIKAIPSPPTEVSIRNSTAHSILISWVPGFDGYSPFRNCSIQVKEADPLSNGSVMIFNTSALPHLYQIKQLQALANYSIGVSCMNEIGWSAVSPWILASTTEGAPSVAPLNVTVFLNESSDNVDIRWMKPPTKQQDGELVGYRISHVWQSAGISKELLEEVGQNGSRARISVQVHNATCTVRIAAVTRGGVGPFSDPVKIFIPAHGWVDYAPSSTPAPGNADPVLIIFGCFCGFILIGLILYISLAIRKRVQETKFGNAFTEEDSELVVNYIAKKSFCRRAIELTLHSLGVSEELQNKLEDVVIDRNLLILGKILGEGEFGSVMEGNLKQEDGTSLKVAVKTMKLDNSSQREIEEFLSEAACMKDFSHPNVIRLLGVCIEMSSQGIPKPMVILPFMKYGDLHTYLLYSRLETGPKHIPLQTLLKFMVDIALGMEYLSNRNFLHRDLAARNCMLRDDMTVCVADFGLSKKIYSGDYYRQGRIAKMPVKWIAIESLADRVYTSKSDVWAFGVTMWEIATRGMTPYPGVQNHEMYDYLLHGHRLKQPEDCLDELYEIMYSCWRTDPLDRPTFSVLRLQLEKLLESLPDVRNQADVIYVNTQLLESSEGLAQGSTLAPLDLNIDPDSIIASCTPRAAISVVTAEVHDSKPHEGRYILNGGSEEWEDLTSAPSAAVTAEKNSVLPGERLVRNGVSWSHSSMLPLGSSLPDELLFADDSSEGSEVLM

Row | SMILES | IC50 [1] | IC50 [2]
1 | Cc1cc(C(=O)N2CCC(c3cn([C@H]4CC[C@H](O)CC4)c4nc(NCCCCO)ncc34)CC2)cc(C)n1 [compound 100, (2,6-dimethylpyridin-4-yl)(4-(2-((4-hydroxybutyl)amino)-7-((1r,4r)-4-hydroxycyclohexyl)-7H-pyrrolo[2,3-d]pyrimidin-5-yl)piperidin-1-yl)methanone] | < 10 nM | 1000 to 30000 nM
2 | Cc1cc(C(=O)N2CCC(c3cn([C@H]4CC[C@H](O)CC4)c4nc(NCCCC(F)(F)F)ncc34)CC2)cc(C)n1 [compound 101, (2,6-dimethylpyridin-4-yl)(4-(7-((1r,4r)-4-hydroxycyclohexyl)-2-((4,4,4-trifluorobutyl)amino)-7H-pyrrolo[2,3-d]pyrimidin-5-yl)piperidin-1-yl)methanone] | < 10 nM | 1000 to 30000 nM
3 | CCC[C@H](C)Nc1ncc2c(C3CCN(C(=O)c4cc(C)nc(C)c4)CC3)cn(C[C@H]3CC[C@H](N)CC3)c2n1 [compound 102, (4-(7-(((1R,4S)-4-aminocyclohexyl)methyl)-2-(((S)-pentan-2-yl)amino)-7H-pyrrolo[2,3-d]pyrimidin-5-yl)piperidin-1-yl)(2,6-dimethylpyridin-4-yl)methanone] | < 10 nM | 100 to 1000 nM
